This note sets out measurements from patent publication US8431596B2 (Cancer Research Technology Limited, priority 2007, dated 2013).

The experiment addresses T1, AXL (human catalytic domain) (Homo sapiens, UniProt P30530).
T1 construct: purchased Upstate Ltd. 14-512
T1 sequence (P30530 473-894): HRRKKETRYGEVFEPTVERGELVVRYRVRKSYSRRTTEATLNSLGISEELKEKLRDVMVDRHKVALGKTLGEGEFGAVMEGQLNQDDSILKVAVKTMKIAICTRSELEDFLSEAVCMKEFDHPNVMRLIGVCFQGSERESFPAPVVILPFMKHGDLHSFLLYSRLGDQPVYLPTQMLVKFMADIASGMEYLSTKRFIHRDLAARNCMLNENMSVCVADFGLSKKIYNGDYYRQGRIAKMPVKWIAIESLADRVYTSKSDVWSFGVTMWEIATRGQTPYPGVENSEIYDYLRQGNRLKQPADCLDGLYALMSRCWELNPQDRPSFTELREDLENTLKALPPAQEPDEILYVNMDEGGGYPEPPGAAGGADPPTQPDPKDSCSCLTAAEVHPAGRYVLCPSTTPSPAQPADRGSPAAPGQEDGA
In words: AXL (human catalytic domain) Enzyme Activity Assay (IMAP fluorescence polarisation). The class given is biochemical. In short, it runs like this: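 Recombinant human AXL isoform 1 (aa473-894; final 15 nM) phosphorylated 100 nM fluorescein-CSK-tide with 150 μM ATP (KM) in HEPES pH 7.0/MgCl2/DTT buffer for 60 min at room temperature. IMAP fluorescence polarisation read after overnight binding; IC50 from 10-point 4-parameter logistic fits.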

[1] abbreviates: first data set, recombinant AXL isoform 1 aa473-894, 150 μM ATP.
Setting [2] is: further data set (WW-001 through WW-169, XX-001 through XX-469, YY-001 through YY-016, ZZ-001 through ZZ-003), 150 μM ATP.

Take `COc1ccc(-c2cccc3nc(Nc4cccc(N)c4)nn23)cc1` [XX-061, N-[5-(4-Methoxy-phenyl)-[1,2,4]triazolo[1,5-a]pyridin-2-yl]-benzene-1,3-diamine]: the IC50 (usually the midpoint of a concentration-inhibition curve) is, setting by setting: under setting [1], 1000 to 10000 nM; under setting [2], 1000 to 10000 nM.
Consider `FC(F)(F)c1ccc(CNc2cccc(-c3cccc4nc(Nc5ccc(OCCN6CCCC6)cc5)nn34)c2)o1` [XX-448], for which, under setting [2], the 50% inhibitory concentration (IC50) fell in the range of 100 to 1000 nM.
Compound `O=C(Nc1ccc(-c2cccc3nc(Nc4ccc(OCCN5CCCC5)cc4)nn23)cc1)c1ccno1` [XX-250] came in with an IC50 under setting [2] of 100 to 1000 nM.
`CCN(CC)CCOc1cc(Nc2nc3ccnc(-c4cnn(Cc5ccccc5)c4)n3n2)ccn1` [YY-016]: under setting [2], the IC50 was in the range of 1000 to 10000 nM.
`O=C(Nc1cccc(Cl)c1)c1cccc(-c2cccc3nc(Nc4ccc(OCCN5CCCC5)cc4)nn23)c1` [XX-322] returned an IC50 under setting [2] of 1000 to 10000 nM.
For `O=C(Nc1nc2cccc(-c3cn[nH]c3)n2n1)C1CC1` [WW-060, cyclopropanecarboxylic acid [5-(1H-pyrazol-4-yl)-[1,2,4]triazolo[1,5-a]pyridin-2-yl]-amide], the IC50 is, setting by setting: under setting [1], 1000 to 10000 nM; under setting [2], 1000 to 10000 nM.
On to `CN(C)CCOc1ccc(Nc2nc3cccc(-c4ccc5c(c4)OCCO5)n3n2)cc1` [XX-055], for which the IC50 is under 1000 nM under setting [1] and at most 100 nM under setting [2].
For the compound `COCCn1cc(-c2cccc3nc(Nc4ccc(OCCN5CCCC5)cc4)nn23)cn1` [XX-349], the IC50 under setting [2] fell in the range of 100 to 1000 nM.
On to `c1cc2nc(Nc3ccc(OCCN4CCCC4)cc3)nn2c(-c2ccc3c(c2)OCCO3)n1` [YY-010], for which the IC50 under setting [2] fell in the range of 100 to 1000 nM.
The compound `c1ccc(-c2cccc3nc(Nc4ccc(OCCN5CCCC5)cc4)nn23)cc1` [XX-159] yielded an IC50 under setting [2] of 100 to 1000 nM.
Take `CCCCNc1cccc2nc(NC(=O)C3CC3)nn12` [WW-073]: the IC50 reads like this: under setting [1], 1000 to 10000 nM; under setting [2], 1000 to 10000 nM.
Turning to `O=C(NCCN1CCCC1)c1cccc(Nc2nc3cccc(-c4ccc5c(c4)OCCO5)n3n2)c1` [XX-113], the IC50 under setting [2] is at most 100 nM.
On to `Cc1ncsc1CNc1cccc(-c2cccc3nc(Nc4ccc(OCCN5CCCC5)cc4)nn23)c1` [XX-394], for which the IC50 under setting [2] was at most 100 nM.
Same read-out and setting: next, `COc1ccc(-c2cccc3nc(Nc4cccc(C(C)=O)c4)nn23)cc1` [XX-008]: 100 to 1000 nM; `Cc1cccc(CS(=O)(=O)n2cc(-c3cccc4nc(Nc5ccc(OCCN6CCCC6)cc5)nn34)cn2)c1` [XX-286]: 100 to 1000 nM; `CCN(CC)CCCNc1cccc(Nc2nc3cccc(-c4ccc5c(c4)OCCO5)n3n2)c1` [XX-130]: at most 100 nM.
Turning to `COc1ccc(-c2cccc3nc(Nc4ccc(OCCN(C)Cc5ccccc5)cc4)nn23)cc1` [XX-064], the IC50 under setting [1] was under 1000 nM and the IC50 under setting [2] was 100 to 1000 nM.
`Cn1nc(COc2cccc(-c3cccc4nc(Nc5ccc(OCCN6CCCC6)cc5)nn34)c2)c2ccccc21` [XX-407]: under setting [2], the IC50 was in the range of 100 to 1000 nM.
`COc1ccc(-c2cccc3nc(Nc4ccc(N(C)C(=O)C(C)N5CCOCC5)cc4)nn23)cc1` (stereo not drawn) [XX-368]: under setting [2], the 50% inhibitory concentration (IC50) lay in the range of 100 to 1000 nM.
Regarding `CC(C(=O)Nc1cccc(Nc2nc3cccc(-c4ccc5c(c4)OCCO5)n3n2)c1)N1CCCC1` (stereo not drawn) [XX-136], the IC50 under setting [2] is at most 100 nM.
The compound `COc1ccc(-c2cccc3nc(Nc4cccc(N(C)C(=O)C(C)N5CCCC5)c4)nn23)cc1` (stereo not drawn) [XX-390] displayed an IC50 under setting [2] of at most 100 nM.
Under setting [2], `FC(F)(F)c1ccccc1-c1cccc2nc(Nc3ccc(OCCN4CCCC4)cc3)nn12` [XX-195] came in with an IC50 of 1000 to 10000 nM.
Turning to `CN(C)c1ccc(-c2cccc3nc(NC(=O)C4CC4)nn23)cn1` [WW-036], the IC50 fell in the range of 1000 to 10000 nM under setting [1] and 1000 to 10000 nM under setting [2].
Compound `Cn1cc(-c2cccc(-c3cccc4nc(Nc5ccc(OCCN6CCCC6)cc5)nn34)c2)cn1` [XX-171] came in with an IC50 under setting [2] of 100 to 1000 nM.
As for `CN(CCN1CCCC1)c1ccc(Nc2nc3cccc(-c4ccc5c(c4)OCCO5)n3n2)cc1` [XX-154], the IC50 under setting [2] is at most 100 nM.
Turning to `CN(C)CCOc1cc(Nc2nc3cccc(-c4ccc5c(c4)OCCO5)n3n2)ccn1` [XX-079], the IC50 under setting [1] was under 1000 nM and the IC50 under setting [2] is at most 100 nM.
Under setting [2], `COc1ccccc1COc1cccc(-c2cccc3nc(Nc4ccc(OCCN5CCCC5)cc4)nn23)c1` [XX-338] had an IC50 of 1000 to 10000 nM.
`CN1CCN(C(=O)c2ccc(Nc3nc4cccc(-c5ccc6c(c5)OCCO6)n4n3)cc2)CC1` [XX-111] returned an IC50 under setting [2] of 100 to 1000 nM.
Consider `CCn1cc(-c2cccc(-c3cccc4nc(Nc5ccc(OCCN6CCCC6)cc5)nn34)c2)cn1` [XX-172], for which, under setting [2], the IC50 lay in the range of 100 to 1000 nM.
The compound `CC[C@H](COc1ccc(Nc2nc3cccc(-c4ccc(OC)cc4)n3n2)cc1)N1CCCC1` [XX-414] registered a half-inhibitory concentration (IC50) under setting [2] of at most 100 nM.
Turning to `COc1ccc(-c2cccc3nc(Nc4ccc(OC[C@@H](c5ccccc5)N5CCCC5)cc4)nn23)cc1` [XX-411], the IC50 under setting [2] fell in the range of 100 to 1000 nM.
For `O=C(Nc1nc2cccc(-c3ccoc3)n2n1)C1CC1` [WW-056, Cyclopropanecarboxylic acid (5-furan-3-yl [1,2,4]triazolo[1,5-a]pyridin-2-yl)-amide], the IC50 is, setting by setting: under setting [1], 1000 to 10000 nM; under setting [2], 1000 to 10000 nM.
The compound `CCS(=O)(=O)n1cc(-c2cccc3nc(Nc4ccc(OCCN5CCCC5)cc4)nn23)cn1` [XX-374] gave an IC50 under setting [2] of at most 100 nM.
Under setting [2], `COc1ccc2nc(Nc3ccc(OCCN4CCCC4)cc3)nn2c1-c1ccc2c(c1)OCCO2` [XX-323, [5-(2,3-Dihydro-benzo[1,4]dioxin-6-yl)-6-methoxy-[1,2,4]triazolo[1,5-a]pyridin-2-yl]-[4-(2-pyrrolidin-1-yl-ethoxy)-phenyl]-amine] gave an IC50 of 1000 to 10000 nM.
As for `COc1ccc(COc2cccc(-c3cccc4nc(Nc5ccc(OCCN6CCCC6)cc5)nn34)c2)cc1` [XX-340], under setting [2], the IC50 was in the range of 100 to 1000 nM.
On to `O=C(O)Cn1cc(-c2cccc3nc(Nc4ccc(OCCN5CCCC5)cc4)nn23)cn1` [XX-440, (4-{2-[4-(2-Pyrrolidin-1-yl-ethoxy)-phenylamino]-[1,2,4]triazolo[1,5-a]pyridin-5-yl}-pyrazol-1-yl)-acetic acid], for which the IC50 under setting [2] is 1000 to 10000 nM.
As for `CN1CCN(CCC(=O)Nc2nc3cccc(-c4ccc5c(c4)OCCO5)n3n2)CC1` [WW-169], the IC50 under setting [2] was in the range of 1000 to 10000 nM.
On to `c1cc(-c2ccc3c(c2)OCCO3)n2nc(Nc3ccc(OCCN4CCCCC4)nc3)nc2c1` [XX-106], for which the IC50 under setting [2] is 100 to 1000 nM.
Under setting [2], `O=S(=O)(C1CC1)n1cc(-c2cccc3nc(Nc4ccc(OCCN5CCCC5)cc4)nn23)cn1` [XX-375] showed an IC50 of at most 100 nM.
`COc1ccc(-c2nccc3nc(Nc4ccc(OCCN5CCCCC5)cc4)nn23)cc1` [YY-002]: the IC50 runs as follows: under setting [1], under 1000 nM; under setting [2], at most 100 nM.
`Fc1ccc(CNc2cccc(-c3cccc4nc(Nc5ccc(OCCN6CCCC6)cc5)nn34)c2)cc1` [XX-456] came in with an IC50 under setting [2] of 100 to 1000 nM.
In turn, `Cc1nc(C)c(CNc2cccc(-c3cccc4nc(Nc5ccc(OCCN6CCCC6)cc5)nn34)c2)s1` [XX-263] showed a concentration for half-maximal inhibition (IC50) under setting [2] of 100 to 1000 nM.
`CC(C)Cn1cc(-c2cccc3nc(Nc4ccc(OCCN5CCCC5)cc4)nn23)cn1` [XX-274] registered an IC50 under setting [2] of 1000 to 10000 nM.
`Clc1ccc(-c2cccc3nc(Nc4ccc(OCCN5CCCC5)cc4)nn23)cc1` [XX-211] gave an IC50 under setting [2] of at most 100 nM.
On to `CN(C)c1cccc(-c2cccc3nc(Nc4ccc(OCCN5CCCC5)cc4)nn23)c1` [XX-236], for which, under setting [2], the IC50 was 100 to 1000 nM.
The compound `O=C(Cn1cc(-c2cccc3nc(Nc4ccc(OCCN5CCCC5)cc4)nn23)cn1)NCc1ccccc1` [XX-433] yielded an IC50 under setting [2] of 100 to 1000 nM.
The compound `CC(C)CS(=O)(=O)n1cc(-c2cccc3nc(Nc4ccc(OCCN5CCCC5)cc4)nn23)cn1` [XX-284] showed an IC50 under setting [2] of 100 to 1000 nM.
`CCN(CC)CCOc1cc(Nc2nc3cccc(-c4ccc(OC)cc4)n3n2)ccn1` [XX-361] had an IC50 under setting [2] of at most 100 nM.
Still for that read-out and setting: the same measure for `Cc1ccc(CS(=O)(=O)n2cc(-c3cccc4nc(Nc5ccc(OCCN6CCCC6)cc5)nn34)cn2)cc1` [XX-295]: 100 to 1000 nM; for `CCCCCn1cc(-c2cccc3nc(Nc4ccc(OCCN5CCCC5)cc4)nn23)cn1` [XX-343]: 100 to 1000 nM; for `CCN(CC)CCOc1cc(Nc2nc3cccc(-c4ccc5c(c4)OCCO5)n3n2)ccn1` [XX-163]: at most 100 nM.
For the compound `O=C(Nc1nc2cccc(NCc3cccc(Cl)c3)n2n1)C1CC1` [WW-081], the IC50 fell in the range of 1000 to 10000 nM under setting [1] and 1000 to 10000 nM under setting [2].
The compound `Fc1ccc(CNc2cccc(-c3cccc4nc(Nc5ccc(OCCN6CCCC6)cc5)nn34)c2)nc1` [XX-443] returned an IC50 under setting [2] of 100 to 1000 nM.
`CCN(CC)CCOc1ccc(Nc2nc3cccc(-c4ccc5c(c4)OCCO5)n3n2)cn1` [XX-162] came in with an IC50 under setting [2] of at most 100 nM.
For `Fc1ccc(-c2cccc(-c3cccc4nc(Nc5ccc(OCCN6CCCC6)cc5)nn34)c2)cc1` [XX-467], under setting [2], the IC50 fell in the range of 1000 to 10000 nM.
With `c1cc(-c2cncnc2)cc(-c2cccc3nc(Nc4ccc(OCCN5CCCC5)cc4)nn23)c1` [XX-469], the IC50 under setting [2] was 100 to 1000 nM.
`Cc1cc(C)cc(-c2cccc3nc(Nc4ccc(OCCN5CCCC5)cc4)nn23)c1` [XX-292] registered a half-inhibitory concentration (IC50) under setting [2] of 100 to 1000 nM.
As to `c1cc(-c2ccc3c(c2)OCO3)n2nc(Nc3ccc(OCCN4CCCCC4)cc3)nc2c1` [XX-047], the IC50 under setting [1] is under 1000 nM and the IC50 under setting [2] lay in the range of 100 to 1000 nM.
In the case of `O=C(Nc1nc2cccc(-c3ccc(F)c(F)c3)n2n1)C1CC1` [WW-090], the IC50 under setting [1] lay within 1000 to 10000 nM and the half-inhibitory concentration (IC50) under setting [2] lay within 1000 to 10000 nM.
For `Oc1cc(F)ccc1-c1cccc2nc(Nc3ccc(OCCN4CCCC4)cc3)nn12` [XX-196], under setting [2], the IC50 was 1000 to 10000 nM.
